Measurements from patent US11707539B2, “FAP-targeted radiopharmaceuticals and imaging agents, and uses related thereto” (Trustees of Tufts College, priority 2020, dated 2023).
Where a SMILES comes first, the peptide text is derived from it.

How the values were obtained:
[1] = Radiochemical purity by HPLC on storage at room temperature; type: physicochemical; settings: three days at room temperature
Experimental: The labeling efficiency was analyzed by instant thin layer chromatography (iTLC) and was typically >98%. For iTLC analysis, 1 μL of diluted labeling solution was applied to a strip of iTLC-SA chromatography paper (Agilent P/N A120B12, 114×2.5 mm) and developed in 0.1M citrate buffer (8 cm solvent migration) to assess free ^177Lu (Rf >0.5) and [^177Lu]-6555 (Rf ˜0). The iTLC strips were analyzed using an Eckert & Ziegler AR-2000 Radio-TLC Imaging Scanner. The radiochemical purity was analyzed by high performance chromatography (HPLC) and was typically >90%. Briefly, the product was analyzed using a Phenomenex Luna 3.0 μm C18(2), 100A, 150 mm×4.6 mm column. Eluent A: 50 mM ammonium acetate in water, eluent B: acetonitrile. Gradient: 2% B from 0-5 min; 2% to 26% B from 5-20 min; 26% to 98% B from 20-25 min; 98% to 2% B from 25-26 min; 2% B from 26-30 min. Flow rate: 1.0 mL/min, Radio-HPLC detector: NaI (Eckert & Zeigler FC-1000), UV: 215 nm. The radiochemical purity remained >90% for three days at room temperature.
The above depicted radiopharmaceutical [^177Lu]-6952 can be prepared as described in Example 19 using the radiochemical precursor 6952 (Example 14 above). The labeling efficiency was analyzed by instant thin layer chromatography (iTLC) and was typically >98%. […] The iTLC strips were analyzed using an Eckert & Ziegler AR-2000 Radio-TLC Imaging Scanner. The radiochemical purity was analyzed by high performance chromatography (HPLC) and was typically >90%. Briefly, the product was analyzed using a Phenomenex Luna 3.0 m C18(2), 100A, 150 mm×4.6 mm column. […]
The labeling efficiency was analyzed by instant thin layer chromatography (iTLC) and was typically >95%. […] The iTLC strips were analyzed using an Eckert & Ziegler AR-2000 Radio-TLC Imaging Scanner. The radiochemical purity was analyzed by high performance chromatography (HPLC) and was typically >95%. Briefly, the product was analyzed using a Phenomenex Luna 3.0 m C18(2), 100Å, 150 mm×4.6 mm column. […]
The labeling efficiency was analyzed by instant thin layer chromatography (iTLC) and was typically >95%. […]

[2] = tested on: HEK-mFAP tumor xenografts; experiment: Efficacy and survival study, single injection; type: in vivo, mouse; settings: single IV injection
Experimental: The aim of the study was to assess the therapeutic efficacy of a single injection of ^177Lu-PNT2004 ([^177Lu]-6522) by evaluating tumor growth delay and median survival. ^177Lu-PNT2004 ([^177Lu]-6522) was provided in 3 concentrations, ready for injection (80 μL/mouse), and the injected dose was determined using a well counter (Capintec calibration) #430x10.
A total of 30 HEK-mFAP tumor-bearing mice were used for the study.
Mouse health checks were performed throughout the study on a weekly basis including body weight measurements. Tumor growth was monitored weekly with caliper measurements (tumor volume=length×width^2×0.5). Study endpoints include tumor size >2 cm in any dimension, tumor ulceration, mouse is moribund, and >15% body weight lost from the last measurement. Mice were housed 5 to a cage with ad libitum access to food and water in 20° C. ambient temperature, 40%-50% humidity, and 12-hour light/12-hour dark cycle.
The mice were randomized into 5 groups, n=6 mice per group. The treatment compositions (1 through 5 above) were injected IV through the tail vein using a catheter (mounted with a 30 Ga needle). Injected doses were determined using a well counter (Capintec calibration). Tumor growth was monitored weekly with caliper measurements, and the mice were followed for survival.

[3] = tested on: HEK-mFAP tumor xenografts; experiment: In vivo biodistribution study of [177Lu]-6522, gamma counting; settings: for Mean (% ID/g): i.v.

C[C@@H](NC(=O)c1ccc(CNC(=O)CN2CCN3CCN4CCN(CC2)CC(=O)[O][Lu]([O]C(=O)C3)[O]C(=O)C4)cc1)C(=O)N1CCC[C@H]1B(O)O [[^177Lu]-6555]
radiochemical purity remained [1]: > 90%

CC(C)[C@H](NC(=O)CNC(=O)CNC(=O)CN1CCN2CCN3CCN(CC1)CC(=O)[O][Lu]([O]C(=O)C2)[O]C(=O)C3)C(=O)N[C@H](C)C(=O)N1CCC[C@H]1B(O)O [[^177Lu]-6522] (HELM PEPTIDE1{[O=C1CN2CCN3CCN(CC(=O)[*:2])CCN(CC2)CC(=O)[O][Lu]([O]1)[O]C(=O)C3].G.G.V.[dA].[OB(O)[C@@H]1CCCN1[*:1]]}$$$$V2.0)
survival benefit ([2]; 15 MBq): did not translate in a survival benefit | tumor growth delay ([2]; 15 MBq): tumor growth delay was observed | survival benefit ([2]; 30 MBq): did not translate in a survival benefit | tumor growth delay ([2]; 30 MBq): tumor growth delay was observed | survival benefit compared to the vehicle or precursor group ([2]; 60 MBq): statically significant survival benefit | Mean (% ID/g) ([3]; Blood, 4 h p.i.): 0.3063 % ID/g | Mean (% ID/g) ([3]; Blood, 24 h p.i.): 0.0085 % ID/g | Mean (% ID/g) ([3]; Blood, 48 h p.i.): 0.0029 % ID/g | Mean (% ID/g) ([3]; Blood, 168 h p.i.): 0.0015 % ID/g | Mean (% ID/g) ([3]; Bone, 4 h p.i.): 1.8037 % ID/g | Mean (% ID/g) ([3]; Bone, 24 h p.i.): 0.2658 % ID/g | Mean (% ID/g) ([3]; Bone, 48 h p.i.): 0.4106 % ID/g | Mean (% ID/g) ([3]; Bone, 168 h p.i.): 0.3959 % ID/g | Mean (% ID/g) ([3]; Brain, 4 h p.i.): 0.0281 % ID/g | Mean (% ID/g) ([3]; Brain, 24 h p.i.): 0.0036 % ID/g | Mean (% ID/g) ([3]; Brain, 48 h p.i.): 0.0033 % ID/g | Mean (% ID/g) ([3]; Brain, 168 h p.i.): 0.0020 % ID/g | Mean (% ID/g) ([3]; Heart, 4 h p.i.): 0.1528 % ID/g | Mean (% ID/g) ([3]; Heart, 24 h p.i.): 0.0332 % ID/g | Mean (% ID/g) ([3]; Heart, 48 h p.i.): 0.0311 % ID/g | Mean (% ID/g) ([3]; Heart, 168 h p.i.): 0.0256 % ID/g | Mean (% ID/g) ([3]; Kidneys, 4 h p.i.): 2.3525 % ID/g | Mean (% ID/g) ([3]; Kidneys, 4 h p.i., listed as Compound #2): 2.35±0.51 % ID/g | Mean (% ID/g) ([3]; Kidneys, 24 h p.i.): 0.9585 % ID/g | Mean (% ID/g) ([3]; Kidneys, 48 h p.i.): 0.5318 % ID/g | Mean (% ID/g) ([3]; Kidneys, 168 h (day 7) p.i.): 0.1670 % ID/g | Mean (% ID/g) ([3]; Kidneys, 168 h (day 7) p.i., listed as Compound #2): 0.17±0.02 % ID/g | Mean (% ID/g) ([3]; Liver, 4 h p.i.): 0.3774 % ID/g | Mean (% ID/g) ([3]; Liver, 24 h p.i.): 0.1585 % ID/g | Mean (% ID/g) ([3]; Liver, 48 h p.i.): 0.1237 % ID/g | Mean (% ID/g) ([3]; Liver, 168 h p.i.): 0.0725 % ID/g | Mean (% ID/g) ([3]; Lung, 4 h p.i.): 0.3331 % ID/g | Mean (% ID/g) ([3]; Lung, 24 h p.i.): 0.0306 % ID/g | Mean (% ID/g) ([3]; Lung, 48 h p.i.): 0.0312 % ID/g | Mean (% ID/g) ([3]; Lung, 168 h p.i.): 0.0257 % ID/g | Mean (% ID/g) ([3]; Muscle, 4 h p.i.): 0.4649 % ID/g | Mean (% ID/g) ([3]; Muscle, 24 h p.i.): 0.0315 % ID/g | Mean (% ID/g) ([3]; Muscle, 48 h p.i.): 0.0518 % ID/g | Mean (% ID/g) ([3]; Muscle, 168 h p.i.): 0.0604 % ID/g | Mean (% ID/g) ([3]; Pancreas, 4 h p.i.): 0.2167 % ID/g | Mean (% ID/g) ([3]; Pancreas, 24 h p.i.): 0.0347 % ID/g | Mean (% ID/g) ([3]; Pancreas, 48 h p.i.): 0.0275 % ID/g | Mean (% ID/g) ([3]; Pancreas, 168 h p.i.): 0.0197 % ID/g | Mean (% ID/g) ([3]; Skin, 4 h p.i.): 0.9769 % ID/g | Mean (% ID/g) ([3]; Skin, 24 h p.i.): 0.1158 % ID/g | Mean (% ID/g) ([3]; Skin, 48 h p.i.): 0.0906 % ID/g | Mean (% ID/g) ([3]; Skin, 168 h p.i.): 0.0837 % ID/g | Mean (% ID/g) ([3]; Small intestine, 4 h p.i.): 0.2091 % ID/g | Mean (% ID/g) ([3]; Small intestine, 24 h p.i.): 0.0580 % ID/g | Mean (% ID/g) ([3]; Small intestine, 48 h p.i.): 0.0499 % ID/g | Mean (% ID/g) ([3]; Small intestine, 168 h p.i.): 0.0277 % ID/g | Mean (% ID/g) ([3]; Spleen, 4 h p.i.): 0.2587 % ID/g | Mean (% ID/g) ([3]; Spleen, 24 h p.i.): 0.1418 % ID/g | Mean (% ID/g) ([3]; Spleen, 48 h p.i.): 0.1340 % ID/g | Mean (% ID/g) ([3]; Spleen, 168 h p.i.): 0.1437 % ID/g | Mean (% ID/g) ([3]; Stomach, 4 h p.i.): 0.1706 % ID/g | Mean (% ID/g) ([3]; Stomach, 24 h p.i.): 0.0528 % ID/g | Mean (% ID/g) ([3]; Stomach, 48 h p.i.): 0.0331 % ID/g | Mean (% ID/g) ([3]; Stomach, 168 h p.i.): 0.0210 % ID/g | Mean (% ID/g) ([3]; Tumor, 4 h p.i.): 33.0435 % ID/g | Mean (% ID/g) ([3]; Tumor, 4 h p.i., listed as Compound #2): 33.04±5.29 % ID/g | Mean (% ID/g) ([3]; Tumor, 24 h p.i.): 12.9944 % ID/g | Mean (% ID/g) ([3]; Tumor, 48 h p.i.): 7.6749 % ID/g | Mean (% ID/g) ([3]; Tumor, 168 h p.i.): 3.9910 % ID/g | localization in tumor and normal tissue uptake ([3]; up to 168 h p.i.): high localization in tumor xenografts and low normal tissue uptake

C[C@@H](NC(=O)[C@H]1CC[C@H](CNC(=O)CN2CCN3CCN4CCN(CC2)CC(=O)[O][Lu]([O]C(=O)C3)[O]C(=O)C4)CC1)C(=O)N1CCC[C@H]1B(O)O [[^177Lu]-6952]
radiochemical purity remained [1]: > 90%
